We go through nine compounds from ChEMBL document CHEMBL1126039, “Synthesis and antiviral activity of 1-cyclobutyl-5-(2-bromovinyl)uracil nucleoside analogues and related compounds” (J Med Chem, 1992).

Data set [1] has as its system WI-38. Kind of data set: Anti viral activity against HSV-1 in WI-38 cell monolayers. The following applies: Homo sapiens, read-out: ID50 (the source's name). Format: functional.
Data set [2] deals with WI-38. Kind of data set: Anti viral activity against VZV(Ellen strain) in WI-38 cell monolayers. Format: functional. Particulars: Homo sapiens, read-out: ID50 (the source's name).
For data set [3], the system named is WI-38. Description: Anti viral activity against HCMV(AD169) in WI-38 cell monolayers. Format: functional. Particulars: Homo sapiens, read-out: ID50 (the source's name).
The test system of data set [4] is WI-38. Kind of data set: Anti viral activity against HSV-1(Schooler) in WI-38 cell monolayers. Format: functional. The following applies: Homo sapiens, read-out: ID50 (the source's name).
Data set [5] has as its system WI-38. Description: Anti viral activity against HSV-2(186) in WI-38 cell monolayers. Format: functional. The following applies: Homo sapiens, read-out: ID50 (the source's name).
Data set [6] deals with WI-38. Description: Growth inhibitory activity against WI-38 cells. Format: functional. The following applies: Homo sapiens, read-out: ID50 (the source's name).
For data set [7], the target named is T1, Thymidine kinase, cytosolic (Homo sapiens) (UniProt P04183).
T1 sequence (whole entry): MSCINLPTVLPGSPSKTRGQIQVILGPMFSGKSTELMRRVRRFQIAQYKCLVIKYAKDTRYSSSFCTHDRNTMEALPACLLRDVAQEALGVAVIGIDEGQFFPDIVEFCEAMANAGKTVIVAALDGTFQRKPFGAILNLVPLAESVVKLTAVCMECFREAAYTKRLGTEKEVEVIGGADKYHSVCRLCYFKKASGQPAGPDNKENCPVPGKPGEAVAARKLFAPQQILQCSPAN
Particulars: Human alphaherpesvirus 3.

For data set [8], the system named is WI-38. Kind of data set: Anti viral activity against VZV(9021 strain) in WI-38 cell monolayers. Format: functional. The following applies: Homo sapiens, read-out: ID50 (the source's name).
Data set [9] concerns WI-38. Description: Anti viral activity against VZV(Ito strain) in WI-38 cell monolayers. Format: functional. The following applies: Homo sapiens, read-out: ID50 (the source's name).
The test system of data set [10] is WI-38. Kind of data set: Anti viral activity against VZV (Kanno-Kohmura(TK-) strain) in WI-38 cell monolayers. Format: functional. The following applies: Homo sapiens, read-out: ID50 (the source's name).
The test system of data set [11] is WI-38. Kind of data set: Anti viral activity against VZV(pplla strain) in WI-38 cell monolayers. Format: functional. Particulars: Homo sapiens, read-out: ID50 (the source's name).
Data set [12] is described as follows: Therapeutic index of compound maesured as ratio of ID50 for WI-38 cell growth inhibition / ID50 anti-VZV (strain Ellen). Format: cell-based. Particulars: human, WI-38 cells; read-out: Therapeutic index.
Data set [13] has as its target T1, Thymidine kinase, cytosolic (Homo sapiens). The following applies: Human alphaherpesvirus 3. This is another data set of the same source.
Data set [14] concerns WI-38. Kind of data set: Anti viral activity against VZV(40a2 (TK-) strain) in WI-38 cell monolayers. Format: functional. Particulars: Homo sapiens, read-out: ID50 (the source's name).
The subject of data set [15] is WI-38. Description: Anti viral activity against VZV(Oka strain) in WI-38 cell monolayers. Format: functional. The following applies: Homo sapiens, read-out: ID50 (the source's name).
For data set [16], the system named is WI-38. Description: Anti viral activity against HSV-2 in WI-38 cell monolayers. Format: functional. Particulars: Homo sapiens, read-out: ID50 (the source's name).
Data set [17] concerns WI-38. Kind of data set: Anti viral activity against VZV in WI-38 cell monolayers. The following applies: Homo sapiens, read-out: ID50 (the source's name). Format: functional.
For data set [18], the system named is WI-38. Description: Anti viral activity against HCMV in WI-38 cell monolayers. Format: functional. The following applies: Homo sapiens, read-out: ID50 (the source's name).

The structures appear in SMILES notation.

In the case of `O=c1[nH]c(=O)n([C@@H]2C[C@H](CO)C2CO)cc1I` (stereo partly specified), the IC50 in data set [1] was 14000 nM; in data set [2], 28000 nM.

In the case of `Nc1nc2c(ncn2COCCO)c(=O)[nH]1` [ACYCLOVIR], the IC50 is 40000 nM in [3], 200 nM in data set [4], 800 nM in data set [5] and above 750000 nM in data set [6]. Also, in [7], the Kinase activity (pM min-1*ml-1) is 13.

On to `O=c1[nH]c(=O)n([C@@H]2C[C@H](CO)C2CO)cc1/C=C/I` (stereo partly specified), for which the IC50 was 260000 nM in data set [3]; 13000 nM in data set [4]; above 260000 nM in data set [5]; 130 nM in [8]; 50 nM in data set [2]; 100 nM in data set [9]. The IC50 in data set [10] is above 260000 nM; in [11], 260 nM; in data set [6], above 800000 nM. Further, the selectivity ratio in [12] is above 2.7. Also, the Kinase activity (pM min-1*ml-1) in data set [7] was determined as 736.

For `Cc1cn([C@H]2C[C@H](O)[C@@H](CO)O2)c(=O)[nH]c1=O`, the Kinase activity (pM min-1*ml-1) in data set [7] was found to be 585; in data set [13], 174.

For the compound `O=c1[nH]c(=O)n(C2CC(CO)C2CO)cc1/C=C/Br` (racemic), the IC50 in data set [3] was above 300000 nM; in data set [4], above 6000 nM; in data set [5], above 300000 nM; in data set [14] it was above 300000 nM; in [8] it was 600 nM; in [2], 150 nM. The IC50 is 150 nM in [9]; above 300000 nM in data set [10]; 600 nM in data set [15]; 200 nM in [11]; above 750000 nM in data set [6]. The selectivity ratio in [12] is above 2.5. For the same compound, the Kinase activity (pM min-1*ml-1) in [7] was 1280.

For the compound `O=c1[nH]c(=O)n([C@@H]2C[C@H](CO)C2CO)cc1/C=C/Br` (stereo partly specified), the IC50 in [3] was above 300000 nM; in data set [4] it was 3000 nM; in [5], above 300000 nM; in data set [8], 150 nM; in data set [2] it was 200 nM; in data set [9] it was 15 nM. Further, the results for the IC50 in [10], in data set [11] and in [6] were 150000 nM, 200 nM and above 750000 nM, respectively. Further, the selectivity ratio in [12] was above 1.3. The same compound displayed a Kinase activity (pM min-1*ml-1) in data set [7] of 63.

With `O=c1[nH]c(=O)n([C@@H]2C[C@H](CO)C2O)cc1I` (stereo partly specified), the IC50 in data set [1], in data set [16], in [17] and in [18] was above 300000 nM in each case.

Consider `O=c1[nH]c(=O)n([C@@H]2O[C@H](CO)[C@@H](O)[C@@H]2O)cc1/C=C/Br` [SORIVUDINE], for which the IC50 in data set [3] was above 290000 nM; in data set [4] it was 140 nM; in data set [5] it was 120000 nM; in [8], 3 nM; in [2], 3 nM; in data set [9], 7 nM. The IC50 in data set [10] is above 72000 nM; in data set [15], 3 nM; in [11], 3 nM; in data set [6] it was above 75000 nM. For the same compound, the selectivity ratio in data set [12] was above 7.5. Moreover, the Kinase activity (pM min-1*ml-1) in data set [7] stood at 140; in data set [13], 95.

In the case of `O=c1[nH]c(=O)n([C@@H]2C[C@H](CO)C2CO)cc1/C=C/Cl` (stereo partly specified), the IC50 was 350000 nM in data set [3]; 3500 nM in [4]; above 280000 nM in [5]; 1100 nM in [8]; 400 nM in data set [2]; 50 nM in data set [9]. Also, the IC50 in data set [10] is above 220000 nM; in [6] it was above 400000 nM. In addition, the selectivity ratio in data set [12] is above 2. In data set [7], this compound gave a Kinase activity (pM min-1*ml-1) of 333.
